{"source": "paper PMC11259170", "about": "“Small-molecule probe for IBD risk variant GPR65 I231L alters cytokine signaling networks through positive allosteric modulation” (Science Advances, 2024)", "tested_on": "GPR65 WT BMDCs", "assay": "RNA sequencing of BMDCs, GPR65 WT", "assay_type": "cell-based, mouse", "procedure": "BMDCs were differentiated from bone marrow from in Dulbecco’s modified Eagle’s medium (DMEM) [10% heat-inactivated fetal bovine serum (FBS), 1X GlutaMAX, 1% penicillin-streptomycin] containing recombinant murine granulocyte-macrophage colony-stimulating factor (rmGM-CSF) (20 ng/ml; Peprotech, 315-03) for 7 days, supplemented with additional DMEM + rmGM-CSF on day 3. Cells were then scraped and seeded at 1 × 10^5 cells per well in a 96-well microplate and allowed to adhere overnight.\nDifferent media were prepared on the basis of target pH. pH 6.6: DMEM [10% FBS, 1% penicillin/streptomycin (p/s), 20 mM BES (MilliporeSigma, B4554), 1X Glutamax (Gibco, 35050061), 3.75 mM sodium bicarbonate, and 41.25 mM NaCl]. pH 7.2: DMEM (10% FBS, 1% p/s, 20 mM BES, 1X Glutamax, 7.5 mM sodium bicarbonate, and 36.5 mM NaCl). pH 7.6: DMEM 10% FBS, 1% p/s, 20 mM BES, 1X Glutamax, and 44 mM sodium bicarbonate. Media was allowed to equilibrate overnight at 37°C, 5% CO2 in a vented conical tube, and then adjusted to desired pH immediately before the stimulation using 1 M NaOH.\nBMDCs were stimulated with different compounds and pH conditions while simultaneously challenged with zymosan (5 μg/ml; Invivogen, tlrl-zyn) for 2 hours. The treatment conditions were as follows: (i) pH 7.2 + DMSO, (ii) pH 7.2 + 20 μM BRD5075, (iii) pH 7.6 + DMSO, and (iv) pH 7.6 + 5 μM PGE2 (Tocris, 2296). Cells were lysed with a lysis/binding buffer (Invitrogen, A33562).\nLibraries were prepared using a modified SmartSeq2 protocol. RNA lysates were purified with Dynabeads mRNA Direct Purification kit (Life Technologies, 61011), followed by reverse transcription with Maxima Reverse Transcriptase (Thermo Fisher Scientific, EP0742) and whole transcription amplification (WTA) with KAPA HotStart HiFi 2x ReadyMix (Kapa Biosystems, KK2601). WTA products were purified with Ampure XP beads (Beckman Coulter, A63880). RNA sequencing libraries were constructed using Nextera XT DNA Library Preparation kit (Illumina, FC-131-1096). Samples were purified with Ampure XP, pooled in equal quantities, then run on 2% E-gel EX (Invitrogen, G402022). Extracted library from ~250 to 800 bps with gel extraction kit (Zymo Research, D4008). The libraries were sequenced on an Illumina NextSeq 500 instrument with NextSeq 500/550 High Output v2 kit (Illumina, 20024906) and the following parameters: paired End: Index1 8, Index2 8, Read1 38, Read 2 38.\nBCL files were converted to fastq using Bcl2Fastq. Fastq reads were aligned to the mouse reference genome mm10 using the STAR aligner ([55]), and counts assigned to genes using the RSEM package ([56]). The R/Bioconductor package DESeq2 ([57]) was used to identify differentially expressed (DE) genes. The data were not normalized or pre-processed in any way, as DESeq2 expects raw un-normalized counts as input. Genes with a Benjamini and Hochberg–corrected P value < 0.1 were considered statistically significant.", "key": {"[1]": {"details": "WT BMDCs, BRD5075 vs DMSO, pH 7.2"}}}
{"smiles": "Cc1ccc(NC(=O)c2cnn3c(O)cc(-c4ccc(COC(C)C)cc4)nc23)nc1", "note": "[BRD5075, O=C(NC1=NC=C(C)C=C1)C2=C3N(N=C2)C(O)=CC(C4=CC=C(COC(C)C)C=C4)=N3]", "values": [{"measurement": "Fos expression", "setting": "20 μM vs DMSO, pH 7.2", "value": "up-regulated"}, {"measurement": "Socs3 and Cish expression", "setting": "20 μM vs DMSO, pH 7.2", "value": "down-regulated"}, {"measurement": "Tnfrsf9, Tnfrsf26 and Tnfaip8 expression", "setting": "20 μM vs DMSO, pH 7.2", "value": "down-regulated"}, {"measurement": "expression of inflammatory cytokine (Il12b, Il1b, Tnf) and chemokine (Ccl7, Ccl2, Ccl22, Cxcl1, Cxcl2, Cxcl3) genes", "setting": "20 μM vs DMSO, pH 7.2", "value": "down-regulated"}, {"measurement": "Mt1 and Mt2 expression", "setting": "20 μM vs DMSO, pH 7.2, zymosan, 2 hours", "value": "up-regulated"}, {"measurement": "log2FoldChange Acod1", "setting": "[1]", "value": -0.8043}, {"measurement": "log2FoldChange Ahnak", "setting": "[1]", "value": -0.3498}, {"measurement": "log2FoldChange Bcl2a1a", "setting": "[1]", "value": -0.4699}, {"measurement": "log2FoldChange Bcl2a1b", "setting": "[1]", "value": -0.2827}, {"measurement": "log2FoldChange Bcl2a1d", "setting": "[1]", "value": -0.38}, {"measurement": "log2FoldChange Btg1", "setting": "[1]", "value": -0.3947}, {"measurement": "log2FoldChange Cacnb3", "setting": "[1]", "value": -0.5998}, {"measurement": "log2FoldChange Cap1", "setting": "[1]", "value": -0.3862}, {"measurement": "log2FoldChange Car2", "setting": "[1]", "value": -0.6566}, {"measurement": "log2FoldChange Ccl2", "setting": "[1]", "value": -0.6388}, {"measurement": "log2FoldChange Ccl5", "setting": "[1]", "value": -0.8152}, {"measurement": "log2FoldChange Ccl7", "setting": "[1]", "value": -1.049}, {"measurement": "log2FoldChange Ccl22", "setting": "[1]", "value": -0.5298}, {"measurement": "log2FoldChange Ccr7", "setting": "[1]", "value": -0.5607}, {"measurement": "log2FoldChange Ccrl2", "setting": "[1]", "value": -0.6903}, {"measurement": "log2FoldChange Cd14", "setting": "[1]", "value": -0.4004}, {"measurement": "log2FoldChange Cd86", "setting": "[1]", "value": -0.6053}, {"measurement": "log2FoldChange Cdc37", "setting": "[1]", "value": -0.5925}, {"measurement": "log2FoldChange Cdc42ep2", "setting": "[1]", "value": -0.4809}, {"measurement": "log2FoldChange Cebpb", "setting": "[1]", "value": -0.9437}, {"measurement": "log2FoldChange Cflar", "setting": "[1]", "value": -0.6547}, {"measurement": "log2FoldChange Cish", "setting": "[1]", "value": -0.8764}, {"measurement": "log2FoldChange Clec4e", "setting": "[1]", "value": -0.6037}, {"measurement": "log2FoldChange Coro1a", "setting": "[1]", "value": -0.3668}, {"measurement": "log2FoldChange Cxcl1", "setting": "[1]", "value": -0.8744}, {"measurement": "log2FoldChange Cxcl2", "setting": "[1]", "value": -0.4995}, {"measurement": "log2FoldChange Cxcl3", "setting": "[1]", "value": -0.5082}, {"measurement": "log2FoldChange Cytip", "setting": "[1]", "value": -0.4125}, {"measurement": "log2FoldChange Ddx5", "setting": "[1]", "value": -0.3311}, {"measurement": "log2FoldChange Ehd1", "setting": "[1]", "value": -0.3665}, {"measurement": "log2FoldChange Eif1a", "setting": "[1]", "value": -0.4662}, {"measurement": "log2FoldChange Fam177a", "setting": "[1]", "value": -0.5633}, {"measurement": "log2FoldChange Flrt3", "setting": "[1]", "value": -0.6822}, {"measurement": "log2FoldChange Fos", "setting": "[1]", "value": 0.7626}, {"measurement": "log2FoldChange Fscn1", "setting": "[1]", "value": -1.127}, {"measurement": "log2FoldChange Gem", "setting": "[1]", "value": -0.7493}, {"measurement": "log2FoldChange Ghitm", "setting": "[1]", "value": -0.3657}, {"measurement": "log2FoldChange Gpr84", "setting": "[1]", "value": -0.6049}, {"measurement": "log2FoldChange H2-Ab1", "setting": "[1]", "value": -0.3044}, {"measurement": "log2FoldChange H2-D1", "setting": "[1]", "value": -0.3663}, {"measurement": "log2FoldChange H2-K1", "setting": "[1]", "value": -0.4443}, {"measurement": "log2FoldChange H2-Q4", "setting": "[1]", "value": -0.9033}, {"measurement": "log2FoldChange H2-Q6", "setting": "[1]", "value": -0.6888}, {"measurement": "log2FoldChange H2-Q7", "setting": "[1]", "value": -0.7384}, {"measurement": "log2FoldChange Hivep3", "setting": "[1]", "value": -0.8888}, {"measurement": "log2FoldChange Hnrnpab", "setting": "[1]", "value": -0.4744}, {"measurement": "log2FoldChange Ier3", "setting": "[1]", "value": -0.643}, {"measurement": "log2FoldChange Ifitm1", "setting": "[1]", "value": -0.5428}, {"measurement": "log2FoldChange Ifitm3", "setting": "[1]", "value": -0.5054}, {"measurement": "log2FoldChange Il1b", "setting": "[1]", "value": -1.038}, {"measurement": "log2FoldChange Il1rn", "setting": "[1]", "value": -0.3871}, {"measurement": "log2FoldChange Il12b", "setting": "[1]", "value": -0.7451}, {"measurement": "log2FoldChange Inhba", "setting": "[1]", "value": -0.8833}, {"measurement": "log2FoldChange Irf8", "setting": "[1]", "value": -0.5092}, {"measurement": "log2FoldChange Lrrc58", "setting": "[1]", "value": -0.5089}, {"measurement": "log2FoldChange Malt1", "setting": "[1]", "value": -0.6085}, {"measurement": "log2FoldChange Marcksl1", "setting": "[1]", "value": -0.8077}, {"measurement": "log2FoldChange Myo9b", "setting": "[1]", "value": -0.609}, {"measurement": "log2FoldChange Nfe2l2", "setting": "[1]", "value": -0.3368}, {"measurement": "log2FoldChange Nfkb2", "setting": "[1]", "value": -0.6827}, {"measurement": "log2FoldChange Nfkbia", "setting": "[1]", "value": -0.3317}, {"measurement": "log2FoldChange Nfkbid", "setting": "[1]", "value": -0.8151}, {"measurement": "log2FoldChange Nfkbie", "setting": "[1]", "value": -0.5542}, {"measurement": "log2FoldChange Pde4b", "setting": "[1]", "value": -0.698}, {"measurement": "log2FoldChange Plau", "setting": "[1]", "value": -0.5236}, {"measurement": "log2FoldChange Plek", "setting": "[1]", "value": -0.4983}, {"measurement": "log2FoldChange Ptafr", "setting": "[1]", "value": -0.4512}, {"measurement": "log2FoldChange Ptgs2", "setting": "[1]", "value": -0.6129}, {"measurement": "log2FoldChange Ptpn6", "setting": "[1]", "value": -0.3496}, {"measurement": "log2FoldChange Rasgef1b", "setting": "[1]", "value": -0.4887}, {"measurement": "log2FoldChange Rgs1", "setting": "[1]", "value": -0.3869}, {"measurement": "log2FoldChange Rps28", "setting": "[1]", "value": 0.3044}, {"measurement": "log2FoldChange Rsad2", "setting": "[1]", "value": -0.6161}, {"measurement": "log2FoldChange S100a8", "setting": "[1]", "value": -0.9378}, {"measurement": "log2FoldChange S100a9", "setting": "[1]", "value": -1.055}, {"measurement": "log2FoldChange Samsn1", "setting": "[1]", "value": -0.5214}, {"measurement": "log2FoldChange Sat1", "setting": "[1]", "value": -0.2878}, {"measurement": "log2FoldChange Sel1l", "setting": "[1]", "value": -0.4914}, {"measurement": "log2FoldChange Sh3bgrl", "setting": "[1]", "value": -0.3277}, {"measurement": "log2FoldChange Slc3a2", "setting": "[1]", "value": -0.6173}, {"measurement": "log2FoldChange Slc7a11", "setting": "[1]", "value": -0.4778}, {"measurement": "log2FoldChange Slfn2", "setting": "[1]", "value": -0.3087}, {"measurement": "log2FoldChange Socs3", "setting": "[1]", "value": -0.448}, {"measurement": "log2FoldChange Sqstm1", "setting": "[1]", "value": -0.4417}, {"measurement": "log2FoldChange Srgn", "setting": "[1]", "value": -0.3315}, {"measurement": "log2FoldChange Stub1", "setting": "[1]", "value": -0.4634}, {"measurement": "log2FoldChange Syngr2", "setting": "[1]", "value": -0.3646}, {"measurement": "log2FoldChange Tfec", "setting": "[1]", "value": -0.8287}, {"measurement": "log2FoldChange Tlr2", "setting": "[1]", "value": -0.455}, {"measurement": "log2FoldChange Tmem123", "setting": "[1]", "value": -0.5279}, {"measurement": "log2FoldChange Tmsb10", "setting": "[1]", "value": 0.5333}, {"measurement": "log2FoldChange Tnf", "setting": "[1]", "value": -0.4212}, {"measurement": "log2FoldChange Tnfaip8", "setting": "[1]", "value": -0.4539}, {"measurement": "log2FoldChange Tnfrsf9", "setting": "[1]", "value": -0.6055}, {"measurement": "log2FoldChange Tnfrsf26", "setting": "[1]", "value": -0.4775}, {"measurement": "log2FoldChange Tnip3", "setting": "[1]", "value": -0.5262}, {"measurement": "log2FoldChange Ybx1", "setting": "[1]", "value": -0.4889}, {"measurement": "log2FoldChange mt-Atp8", "setting": "[1]", "value": 0.4788}]}
